# Source: patent US20060159676A1, “Methods for modulating angiogenesis, lymphangiogenesis, and apoptosis with apelin compositions” (priority 2005, published 2006)
# What was measured:
# [1] = system: VEGF mRNA expression; conditions: apelin-soaked bead, frog embryo
# Description: Beads were microsurgically implanted in an avascular region, the posterior lateral mesoderm, of stage 24-26 embryos. Embryos were cultured in 0.2× MMR until stage 35-37, at which time they were prepared for whole mount in situ hybridization analysis as described in Example 2. The embryonic vascular system was visualized using an antisense probe directed against transcripts encoding the Xenopus vascular marker, erg (Baltzinger et al., 1999, Dev. Dyn. 216:420-33).
# [2] = system: CAM blood vessels; experiment: Chick chorioallantoic membrane (CAM) assay; assay type: in vivo, chicken; conditions: 50 ng on filter disc, three days, vs PBS
# Description: Chicken eggs were incubated at 37° C. in a humidified chamber. On day 10 of development, a small window was made in the outer shell of the egg, and the CAM was released from its attachment to the inner shell membrane. A larger window was then made in the egg to allow for addition of the filter paper containing growth factor. Filter discs (3 MM Whatman) of 7-8 mm diameter were pretreated with 10 μl of 0.1% cortisone acetate (Sigma) solution to avoid inflammation of the CAM. The filter discs were air dried prior to application of growth factors. […] After air-drying, the filter discs were placed on the CAM, and eggs were returned to the incubator for three days. Filter discs and the attached CAM were then excised, washed with PBS, trimmed to the size of the disc, and photographed for quantitative analysis (FIGS. 7A and 7B). The number of vessel branch points was determined using a blind protocol. The results are shown as the mean of three independent experiments ±s.e.m. (FIG. 7C).
# [3] = system: mouse endothelial cells (bEnd3); experiment: bEnd3 endothelial cell proliferation (BrdU incorporation); assay type: cell-based; conditions: apelin 10 ng/ml or VEGF 50 ng/ml; 0.1 ng/ml to 1 μg/ml (FIG. 17)
# Description: Similar cellular proliferation assays were performed using mouse endothelial cells (bEnd3) that constitutively express APJ. […] SU1498 was included in proliferation cultures at a 25 μM concentration, and results were assayed using BrdU incorporation.
# Proliferation inhibition experiments with the bEnd3 cells also were carried out using FGF (50 ng/ml) or the FGF pathway inhibitor SU5402 (FIG. 19). SU5402 was included in proliferation cultures at a 20 μM concentration, and results were assayed using BrdU incorporation.
# [4] = system: endothelial cells; conditions: apelin 10 ng/ml, after 48 hours serum starvation; VEGF 50 ng/ml as comparison
# Description: To determine what effect, if any, apelin expression has on apoptosis, TUNEL assays were performed. […] Cells were stained with a DAPI stain (FIG. 21, Panels A, B, and C) or in the TUNEL assay which stains for broken DNA, indicating cells undergoing apoptosis (FIG. 21, Panels D, E, and F).
# [5] = system: lymphatic endothelial cells; experiment: In vivo lymphatic cell number assay, quail CAM (Prox1 staining); conditions: collagen disk with 50 ng apelin or 100 ng VEGF-C on CAM of 7 day quail embryos, 18 hours
# Description: All experiments were carried out using chorioallantoic membranes (CAMs) of quail embryos. Quail embryos used for the lymphatic experiments were 7 days old. Collagen purified from rat tails (Bernanke and Markwald, 1982) was polymerized in 2 mm disks at a final concentration of approximately 1.6 mg/ml in standard phosphate buffered saline (PBS). The total volume of the collagen disk was approximately 10 μl. For experimental treatments, the collagen disks were supplemented with either 50 ng of apelin peptide or 100 ng of VEGF-C protein prior to polymerization at 37° C. for 30 minutes. The VEGF-C was a positive control for these experiments. (Recombinant Human VEGF-C (Cys156Ser), R&D Systems, cat # 752-vc). Apelin peptide was synthesized by Sigma-Genosys (>90% purity). […]
# The samples were incubated with primary antibody (Prox1, Research Diagnostics, cat # RDI-102PA30, diluted to 2 μg/ml final concentration) for 4 hours at room temperature or overnight at 4° C. […] Both the lymphatic cell number as well as the number of lymphatic branches were determined.
# Assays for lymphatic cell number were carried out in areas of the CAM that were close to the location of the collagen disk as described above. Since Prox1 specifically stains lymphatic endothelial cell nuclei, the number of cells in the lymphatic branches was counted directly. […]
# [6] = system: SVEC cells (lymphatic endothelial cell line SVEC4-10); conditions: apelin 10 ng/ml, overnight serum starve, 8 hours of treatment
# Description: Cell migration assays as described above were performed with SVEC cells. Apelin was provided at a concentration of 10 ng/ml, and VEGF-C was provided at a concentration of 100 ng/ml.
substance,measurement,setting,value
Apelin-13,VEGF expression in the vicinity of the bead,[1],no upregulation of VEGF expression
same,blood vessel formation,[2],increased
same,leakage of blood vessels,[2],increased
same,cellular proliferation of endothelial cells,[3],induces the cellular proliferation of endothelial cells
same,apoptosis (TUNEL staining),[4],"anti-apoptotic effect on endothelial cells, to the same extent as VEGF"
same,lymphatic cell number (Prox1 positive nuclei),[5],mitogenic factor for lymphatic endothelial cells
same,lymphatic endothelial cell migration,[6],chemotactic agent for lymphatic endothelial cells
